# Article PMC5085131, “Cyclic AMP efflux inhibitors as potential therapeutic agents for leukemia” (Oncotarget, 2016)
# Read-outs that look alike come from different tables or passages of the source.
# Experiments:
# [1] = target: VLA-4; parameters: method as in PMID 18534032; conditions: cited from earlier work
# [2] = tested on: B-ALL cell lines; experiment: CellTiter-Glo cell viability, all B-ALL cell lines together; format: cell-based, human; conditions: for EC50: Homo sapiens, mean of converged EC50s of six B-ALL lines, read-out: Compound EC50, Mean B-ALL (cell viability); for Sensitivity of B-ALL lines compared with U937 cells: cell viability, overnight
# Method: (§1) Cell viability was determined with the CellTiter-Glo® Luminescent Cell Viability Assay (Promega). Greiner 655083 had 100 μL cRPMI +/− 4×10^4 cells/well, and dose response curves of compounds ranged from 100 μM to 1.53 nM (1% DMSO). Wells with DMSO-only served as negative controls. Samples were incubated overnight, and the assay was completed according to the manufacturer's protocol. Plates were analyzed using a Victor^3V™ 1420 Multilabel Counter (Perkin Elmer).
# [3] = parameters: method as in as printed in each cell; conditions: previously reported; cited from earlier work
# [4] = tested on: U937 cells; experiment: CellTiter-Glo cell viability; format: cell-based; conditions: Homo sapiens, U-937; overnight, n = 8, ± SEM, fit top = 100, bottom = 0, hill slope = −1; read-out: Compound EC50, U937 (cell viability)
# Method: as §1
# [5] = tested on: Sup B15; experiment: CellTiter-Glo cell viability; format: cell-based; conditions: Homo sapiens, overnight, n = 6, ± SEM, read-out: Compound EC50, Sup B15 (cell viability)
# Method: as §1
# [6] = tested on: 697; experiment: CellTiter-Glo cell viability; format: cell-based; conditions: Homo sapiens; overnight, n = 6, ± SEM; read-out: Compound EC50, 697 (cell viability)
# Method: as §1
# [7] = tested on: RS4;11; experiment: CellTiter-Glo cell viability; format: cell-based; conditions: Homo sapiens, overnight, n = 6, ± SEM, read-out: Compound EC50, RS4;11 (cell viability)
# Method: as §1
# [8] = tested on: normal human PBMCs; experiment: CellTiter-Glo cell viability; format: cell-based; conditions: PBMC, overnight, n = 6, ± SEM, read-out: Compound EC50, PBMCs (cell viability)
# Method: Healthy PBMCs were obtained from volunteers. Mononuclear cells were purified using Mono-Poly resolving medium (MP Biomedicals, cat. 091698049) according to manufacturer's instructions. PBMCs were resuspended in cRPMI and kept on ice prior to use.
# as §1
# [9] = tested on: U937 cells; experiment: MultiCyt 4-Plex apoptosis assay; format: cell-based, human; conditions: Homo sapiens, U-937, 24 h
# Method: Apoptosis was determined using MultiCyt® 4-Plex Apoptosis Screening Kit (IntelliCyt, cat. 90053). The kit provides four different apoptosis endpoints that include effector caspases 3 and 7 activation, phosphatidylserine surface expression, mitochondrial membrane depolarization and cell membrane integrity. […] Cell membrane damage is detected by the uptake of a proprietary DNA intercalating agent analogous to 7-aminoactinomycin D.
# 384-well plates (Greiner 784201), pre-loaded with 5 μL cRPMI were stamped using a pintool with 100 nl of DMSO-solubilized compounds from the 100-fold concentrated stock solution. Next, 5 μL U937 cells (2 × 10^6/ml in cRPMI) were added to wells and mixed, and plates were foil-sealed. Compounds (Table 1) were tested in dose response at final concentrations ranging from 15.2 nM to 100 μM (1% DMSO final). Vehicle (DMSO) was used as a negative control. After 24 h incubation under culture conditions, the IntelliCyt MultiCyt 4-Plex Apoptosis Screening Kit was used according to manufacturer's protocol. The data were acquired using iQue Screener Platform (IntelliCyt). Singlet cell populations were analyzed for individual measures of apoptosis, and gates were set based on control histograms.
# [10] = tested on: primary B-ALL patient samples; experiment: CellTiter-Glo cell viability of primary ALL patient samples ex vivo; format: cell-based, human; conditions: for EC50: Homo sapiens
# Method: Bone marrow samples were acquired at diagnosis from pediatric B-ALL patients. Mononuclear cells were enriched by centrifugation in Ficoll-Paque (GE Healthcare, cat. 17-1440-02) and aliquoted for storage in liquid nitrogen until use. Samples were thawed in a 37°C water bath, resuspended in 20% FBS cRPMI, and centrifuged to remove freezing medium. Cells were resuspended in conditioned medium (DMEM, 10% FBS, 50 U/ml penicillin-streptomycin, 2 mM L-glutamine) from HS-5 stromal cell cultures.
# as §1
# For primary ALL patient samples, media consisted of 50% cRPMI, 50% conditioned DMEM from HS-5 stromal cell cultures and compounds. Cell densities ranged from 28,000-68,000 cells/well, and plates were foil-sealed prior to incubation.
# [11] = tested on: U937 cells; experiment: Cell viability by 7-AAD exclusion with or without KH7; format: cell-based, human; conditions: overnight, 6 μM KH7, 7-AAD staining
# Method: Cells treated with ICE and control samples were incubated with 1 μg/ml of 7-AAD for 20-60 minutes at 4°C on a rotator in the dark, and analyzed by flow cytometry according to manufacturer instructions. Gates were set on 7-AAD negative and positive events based on histograms. Percent of 7-AAD negative events is shown.
# [12] = tested on: Reh; experiment: CellTiter-Glo cell viability; format: cell-based; conditions: Homo sapiens, overnight, n = 6, ± SEM, read-out: Compound EC50, Reh (cell viability)
# Method: as §1
# [13] = tested on: U937 cells; experiment: F-cAMP efflux assay in U937 cells (screen and dose response); format: cell-based, human; conditions: for Outcome of screen for inhibitors of cAMP efflux after dose-response validation: screen at 10 μM, 51 hits retested in dose-response
# Method: (§2) Cells were loaded with F-cAMP as described. Briefly, cells were resuspended in a hypertonic solution containing 10% polyethylene glycol 1000, 0.5 M sucrose, and 250 μM F-cAMP in cRPMI without FBS, incubated 10 min at room temperature, washed, and then resuspended in hypotonic solution (60% cRPMI, 40% sterile water) for 2 min at room temperature to complete F-cAMP loading. Cells were resuspended in cRPMI and equilibrated for 2 h under normal culture conditions.
# (§3) Samples were evaluated using Accuri C6 or BD FACScan flow cytometers (Becton Dickinson (BD)).
# Liquid handling was accomplished with a Biomek FX Multichannel system (Beckman-Coulter, Fullerton, CA, USA) and/or Biotek Multiflo system (Winooski, VT, USA). F-cAMP-loaded U937 cells (2000/well) were seeded into 384-well polypropylene plates (Greiner Bio-One 784201, Monroe, NC, USA). Cells were treated with compounds (10 μM final concentration) from the Prestwick Chemical Library (Illkirch, France) or […] Collection (MicroSource, Gaylordsville, CT, USA) delivered by pintool (V&P Scientific, San Diego, CA), at a final DMSO concentration of 1%. Plates were foil-sealed with AlumaSeal 384™ (Excel Scientific, Victorville, CA, USA), and incubated inverted overnight. Sample plates were analyzed by CyAn flow cytometers (Beckman-Coulter) configured with HyperCyt high-throughput auto-sampler systems (IntelliCyt, Albuquerque, NM, USA) using 488 nm excitation to assess FL-1 (530/40) MFI levels.
# Data were analyzed with HyperView software (IntelliCyt) and time-gated to determine data from each well. Wells with ≥ 50 events were evaluated for FL-1 MFI values. Samples with MFI values ≥ 2 standard deviations above the plate mean negative control values were considered “hit” compounds.
# To validate sample data and decrease the number of false-positive hits, compounds were assayed in a high-throughput dose response assay. Plates were set up as in the HTS, with the exception that the plate formats contained 10-well dose responses for each hit compound, at final concentrations ranging from 30 μM to 4 nM.
# The dose response data were normalized for percent response based on sample FL-1 MFI values in comparison to untreated F-cAMP-loaded cells kept at 4°C overnight or at time = 0, and were fitted by GraphPad Prism 5 software (GraphPad Software, La Jolla, CA, USA) for sigmoidal dose response with constrained hill slope = 1.
# [14] = tested on: B-ALL cell lines; experiment: F-cAMP efflux in B-ALL cell lines with MK-571; format: cell-based, human; conditions: 37°C
# Method: as §2, §3
# [15] = mean of converged EC50s, read-out: Compound EC50, Means (of the apoptosis endpoints)
# [16] = n = 4, ± SEM, read-out: Compound EC50, Cell membrane damage
# [17] = n = 4, ± SEM, read-out: Compound EC50, Mitochondrial depolarization
# [18] = mean of converged EC50s of six patient samples, read-out: Compound EC50 (Sample means), cell viability
# [19] = primary B-ALL sample, duplicate, ± SEM, read-out: Compound EC50 (Patient no. 1), cell viability
# [20] = primary B-ALL sample, duplicate, ± SEM, read-out: Compound EC50 (Patient no. 2), cell viability
# [21] = primary B-ALL sample, duplicate, ± SEM, read-out: Compound EC50 (Patient no. 3), cell viability
# [22] = primary B-ALL sample, duplicate, ± SEM, read-out: Compound EC50 (Patient no. 5), cell viability
# [23] = primary B-ALL sample, duplicate, ± SEM, read-out: Compound EC50 (Patient no. 6), cell viability
compound,measurement,setting,value
4-((N'-2-methylphenyl)ureido)-phenylacetyl-L-leucyl-L-aspartyl-L-valyl-L-prolyl-L-alanyl-L-alanyl-L-lysine-FITC [LDV-FITC],Kd,"[1]; high affinity state, read-out: Kd for physiologically activated VLA-4",0.001 to 0.002 µM
same,Kd,"[1]; low affinity state, read-out: Kd for binding to resting VLA-4",~0.012 µM
C[C@H]1[C@H](OC(=O)CCC(=O)O)O[C@@H]2O[C@@]3(C)CC[C@H]4[C@H](C)CC[C@@H]1[C@@]24OO3 [Artesunate],EC50,[2],153 µM
same,Sensitivity of B-ALL lines compared with U937 cells,[2],decreased sensitivity
same,Anticancer effects,[3],"↓metastasis/migration [80, 83]; ↓VEGF expression/angiogenesis [70, 76, 80]; ↓cyclins B & D1, Cdks 2, 4, 6[70]; ↑p21, p27 [70]"
same,Potential mechanism(s) of action,[3],"↓NFκB & AP-1 activation [83, 130, 131]; ↓nitric oxide, cAMP-mediated, Wnt/β-catenin, PI3K/Akt signaling [81, 130, 131]; ↑ROS [70, 72, 78]"
same,EC50,[4],7.99 ± 3.24 µM
same,EC50,[5],326 ± 88.5 µM
same,EC50,[6],99.6 ± 27.7 µM
same,EC50,[7],33.7 ± 10.6 µM
same,EC50,[8],280 ± 91.4 µM
same,EC50,[9]; [15],24.6 µM
same,EC50,"[9]; n = 4, ± SEM, read-out: Compound EC50, Annexin-V +",29.5 ± 1.85 µM
same,EC50,[9]; [16],18.6 ± 1.89 µM
same,EC50,[9]; [17],25.7 ± 0.82 µM
same,EC50,[10]; [18],84.6 µM
same,EC50,[10]; [19],116 ± 55.2 µM
same,EC50,[10]; [20],115 ± 22.7 µM
same,EC50,[10]; [21],66 ± 27.6 µM
same,EC50,[10]; [22],24.6 ± 12.2 µM
same,EC50,[10]; [23],100 ± 48.7 µM
C[C@H]1[C@@H](O)O[C@@H]2O[C@@]3(C)CC[C@H]4[C@H](C)CC[C@@H]1[C@@]24OO3 [Dihydroartemisinin],EC50,[2],74.4 µM
same,Sensitivity of B-ALL lines compared with U937 cells,[2],decreased sensitivity
same,Anticancer effects,[3],"↓VEGF expression & angiogenesis [99, 101, 102]; ↓cyclin B, CDC25 [87]"
same,EC50,[4],1.32 ± 0.58 µM
same,EC50,[5],141 ± 49.5 µM
same,EC50,[6],55.5 ± 16.8 µM
same,EC50,[7],26.2 ± 7.94 µM
same,EC50,[8],128 ± 34.2 µM
same,EC50,[9]; [15],16.4 µM
same,EC50,[9]; [16],23.7 ± 19.4 µM
same,EC50,[9]; [17],9.21 ± 7.52 µM
same,EC50,[10]; [18],46.6 µM
same,EC50,[10]; [20],47.5 ± 12.2 µM
same,EC50,[10]; [21],83.2 ± 74.2 µM
same,EC50,[10]; [22],11.5 ± 5.02 µM
same,EC50,[10]; [23],44.1 ± 32.2 µM
same,Cell viability vs. vehicle treated sample at lower concentrations,[10]; samples from patients no. 1 and no. 5,significant increase in cell viability
CC(Sc1nc2ccccc2[nH]1)C(=O)N/N=C/c1cc(Br)ccc1O (stereo not shown) [KH7],Effect of KH7 on cell viability loss induced by ICE,[11],significant protective effect
CN(C)C(=O)CCSC(SCCC(=O)O)c1cccc(/C=C/c2ccc3ccc(Cl)cc3n2)c1 (stereo not shown) [MK-571],EC50,[2],165 µM
same,EC50,[4],94.2 ± 35.5 µM
same,EC50,[12],226 ± 93.6 µM
same,EC50,[5],144 ± 47.8 µM
same,EC50,[6],126 ± 109 µM
same,EC50,[8],157 ± 66.4 µM
same,EC50,"[13]; Homo sapiens, U-937, read-out: EC50 for cAMP efflux blocking, U937 cells loaded with F-cAMP, overnight, 37°C",~30 µM
same,Block of loss of F-cAMP probe fluorescence,"[13]; U937 cells, 24 h, 37°C",A significant part of this loss was blocked
same,Active F-cAMP efflux in the presence of MK-571,"[14]; Group 1: Sup-B15 and MHH-Call3, overnight",blocked completely
same,F-cAMP removed with MK-571,"[14]; Group 2: Reh and RS4;11, overnight, 75-80% without MK-571",30-40%
same,F-cAMP removed with MK-571,"[14]; Group 3: 697 and Nalm-6, overnight, > 90% without MK-571",60-70%
same,EC50,[10]; [18],298 µM
same,EC50,[10]; [19],298 ± 140 µM
C[C@@H]1CC[C@H]2[C@@H](C)C(=O)O[C@@H]3O[C@@]4(C)CC[C@@H]1[C@]32OO4 [artemisinin],Outcome of screen for inhibitors of cAMP efflux after dose-response validation,[13],potentially active
CC1=NCCc2c1[nH]c1cc(O)ccc21 [harmalol],Outcome of screen for inhibitors of cAMP efflux after dose-response validation,[13],potentially active
O=C1c2ccc(O)c(O)c2C(=O)c2c(O)ccc(O)c21 [quinalizarin],Outcome of screen for inhibitors of cAMP efflux after dose-response validation,[13],potentially active
